Measurements published in ChEMBL document CHEMBL6096732 (J Med Chem, 2025).
The source made the active and inactive calls. No cut-off for these calls is given here.

Legend:
[1] = Apparent volume of distribution in male Sprague-Dawley rat at 2 mg/kg, iv measured after 12 hrs by LC-MS/MS analysis; format: ADME, organism-based; details: in vivo, read-out: Vz
4T1 [2] = assay: Antitumor activity against mouse 4T1 cells implanted in female BALB/c mouse model assessed as induction of DNA damage by measuring increase in gamma-H2AX expression in tumor co-administrated orally with olaparib as once daily dose via gavage for 14 days by Western blot analysis; format: functional, cell-based; details: route po, time 14.0 day
Mus musculus [3] = assay: In vivo induction of PD-L1 degradation in male C57BL/6 mouse model implanted with mouse B16-F10 cells assessed as decrease in PD-L1 protein expression in tumor at 50 mg/kg, po co-administered with NP-19 as once daily dosage via gavage for 14 days by DAPI staining based immunofluorescence analysis; format: functional, organism-based; details: time 14.0 day
4T1 [4] = assay: Downregulation of PARP1 expression in mouse 4T1 cells at 2 uM incubated for 24 hrs in presence of olaparib by Western blot analysis; format: functional, cell-based
[5] = Apparent volume of distribution in male Sprague-Dawley rat at 20 mg/kg, po measured after 12 hrs by LC-MS/MS analysis; format: ADME, organism-based; details: in vivo
[6] = Ratio of AUC (0 to t) to AUC (0 to infinity) in male Sprague-Dawley rat at 2 mg/kg, iv measured after 12 hrs by LC-MS/MS analysis; format: ADME, organism-based; details: in vivo
4T1 [7] = assay: Downregulation of PARP1 expression in mouse 4T1 cells at 2 uM incubated for 24 hrs by Western blot analysis; format: functional, cell-based
4T1 [8] = assay: cells; format: functional, cell-based; details: Mus musculus, 4T1, 72 h
[9] = target: T1, Protein deacetylase HDAC6 (Homo sapiens) (UniProt Q9UBN7); details: dose 500.0 nM, time 3.0 hrs
T1 sequence (whole entry): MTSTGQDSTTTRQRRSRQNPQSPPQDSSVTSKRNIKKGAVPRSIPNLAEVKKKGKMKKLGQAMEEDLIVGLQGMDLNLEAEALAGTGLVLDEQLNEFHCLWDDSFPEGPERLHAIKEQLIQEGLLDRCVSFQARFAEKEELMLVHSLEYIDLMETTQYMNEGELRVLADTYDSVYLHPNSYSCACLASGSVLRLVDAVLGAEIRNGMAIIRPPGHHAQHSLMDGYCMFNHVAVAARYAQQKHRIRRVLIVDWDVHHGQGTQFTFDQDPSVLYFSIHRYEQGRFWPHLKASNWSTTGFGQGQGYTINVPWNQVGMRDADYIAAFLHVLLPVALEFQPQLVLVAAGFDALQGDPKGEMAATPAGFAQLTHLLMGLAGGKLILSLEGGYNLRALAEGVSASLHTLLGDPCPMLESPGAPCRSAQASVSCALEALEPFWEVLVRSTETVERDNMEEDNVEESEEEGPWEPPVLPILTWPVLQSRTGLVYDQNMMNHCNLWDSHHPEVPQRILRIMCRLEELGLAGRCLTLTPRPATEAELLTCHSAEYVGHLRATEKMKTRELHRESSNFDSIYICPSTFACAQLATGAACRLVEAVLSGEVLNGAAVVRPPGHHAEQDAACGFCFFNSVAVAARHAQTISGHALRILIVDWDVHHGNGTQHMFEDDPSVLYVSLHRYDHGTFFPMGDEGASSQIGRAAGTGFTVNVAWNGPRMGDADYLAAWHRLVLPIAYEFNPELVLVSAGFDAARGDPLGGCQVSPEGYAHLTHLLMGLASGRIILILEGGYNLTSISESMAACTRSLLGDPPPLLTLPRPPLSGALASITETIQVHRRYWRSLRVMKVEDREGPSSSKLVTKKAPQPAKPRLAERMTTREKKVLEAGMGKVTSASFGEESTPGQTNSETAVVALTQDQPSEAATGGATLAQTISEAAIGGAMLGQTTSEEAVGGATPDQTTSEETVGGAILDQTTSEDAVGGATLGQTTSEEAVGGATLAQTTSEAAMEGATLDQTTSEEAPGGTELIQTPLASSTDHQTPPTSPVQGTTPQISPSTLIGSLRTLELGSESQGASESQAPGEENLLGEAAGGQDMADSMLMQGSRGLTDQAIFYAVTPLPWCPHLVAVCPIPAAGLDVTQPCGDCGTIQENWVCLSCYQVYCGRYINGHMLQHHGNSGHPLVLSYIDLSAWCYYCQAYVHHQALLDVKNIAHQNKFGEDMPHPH

Mus musculus [10] = assay: In vivo induction of PD-L1 degradation in male C57BL/6 mouse model implanted with mouse B16-F10 cells assessed as decrease in PD-L1 protein expression in tumor at 50 mg/kg, po co-administered with NP-19 as once daily dosage via gavage for 14 days by Western blot analysis; format: functional, organism-based; details: time 14.0 day
4T1 [11] = assay: Effect on acetylated H3K56 expression level in mouse 4T1 cells at 5 to 20 uM incubated for 24 hrs by Western blot analysis; format: functional, cell-based; details: dose 5-20 µM
B16-F10 = assay: Inhibition of cell migration in mouse B16-F10 cells assessed as wound area at 20 uM incubated for 24 hrs by wound healing assay (reference value: 50.36 +/- 1.68 %); format: functional; design: scale not given: the % may be the effect or the level left
[12] = Toxicity in male C57BL/6 mouse implanted with mouse B16-F10 cells assessed as histopathological changes in kidney at 50 mg/kg, po co-administered with NP-19 as once daily dosage via gavage for 14 days by HandE staining based microscopic analysis; format: organism-based; details: in vivo, 336 h, time 14 day
[13] = target: Programmed cell death 1 ligand 1 (Mus musculus) (UniProt Q9EP73); assay: Induction of PD-L1 degradation in mouse B16-F10 cells assessed as decrease in PD-L1 protein level at 2 uM measured after 24 hrs in presence of CA-074 by Western blot analysis; format: cell-based
Chain of Programmed cell death 1 ligand 1 (Mus musculus) (Q9EP73 whole entry): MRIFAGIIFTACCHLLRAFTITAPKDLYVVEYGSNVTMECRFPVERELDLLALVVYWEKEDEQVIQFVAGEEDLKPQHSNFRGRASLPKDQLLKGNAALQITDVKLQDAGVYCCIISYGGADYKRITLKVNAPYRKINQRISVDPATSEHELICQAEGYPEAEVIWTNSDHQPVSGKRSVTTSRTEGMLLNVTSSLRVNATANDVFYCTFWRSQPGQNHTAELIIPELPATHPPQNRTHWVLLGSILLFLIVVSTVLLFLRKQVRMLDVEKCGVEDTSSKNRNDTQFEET

[14] = Oral bioavailability in male Sprague-Dawley rat at 20 mg/kg measured after 12 hrs by LC-MS/MS analysis; format: ADME, organism-based; details: in vivo
Mus musculus [15] = assay: Immunomodulatory activity in male C57BL/6 mouse model implanted with mouse B16-F10 cells assessed as increase in CD3+ CD4+ T cells in tumor at 50 mg/kg, po administered once daily for 14 days by flow cytometric analysis (reference value: 3.1 %); format: functional; details: time 14 day
[16] = target: Programmed cell death 1 ligand 1 (Mus musculus) (UniProt Q9EP73); assay: Induction of PD-L1 degradation in mouse B16-F10 cells assessed as decrease in PD-L1 protein level at 5 uM incubated for 24 hrs by DAPI staining based immunofluorescence analysis; format: cell-based
[17] = Half-life in male Sprague-Dawley rat at 2 mg/kg, iv measured after 12 hrs by LC-MS/MS analysis; format: ADME, organism-based; details: in vivo
[18] = Toxicity in male C57BL/6 mouse implanted with mouse B16-F10 cells assessed as histopathological changes in kidney at 50 mg/kg, po administered once daily for 14 days by HandE staining based microscopic analysis; format: organism-based; details: in vivo, 336 h, time 14 day
SK-OV-3 = assay: cells; format: functional, cell-based; details: Homo sapiens, SK-OV-3, 72 h
Description: Antiproliferative activity against human SK-OV-3 cells assessed as inhibition of cell growth incubated for 72 hrs by MTT assay

[19] = Toxicity in female BALB/c mouse model implanted with mouse 4T1 cells assessed as effect on body weight administrated orally as once daily dose via gavage for 14 days; details: in vivo, po, 336 h, time 14 day

Q: Which Vd [1] does the source give for `CCCNNC(=O)c1ccc(Cn2c3ccccc3c3c(-c4ccccn4)nc4ccccc4c32)cc1` here?
A: Its Vd is 2.17 L/kg.

Q: And the Activity (4T1 [2])?
A: The Activity was “Active”.

Q: And the Activity (Mus musculus [3])?
A: Its Activity is “Active”.

Q: What about the Activity (4T1 [4]) of the same compound?
A: The Activity was “Active”.

Q: What about the Vz [5] of the same compound?
A: Its Vz is 7.322 L/kg.

Q: And the “Ratio AUC” value [6]?
A: The value was 99.95%.

Q: What about the Activity (4T1 [7]) of the same compound?
A: The Activity was “Active”.

Q: What about the IC50 (4T1 [8]) of the same compound?
A: Its IC50 is 8.26 µM.

Q: And the inhibition [9]?
A: The inhibition was 17%.

Q: And the Activity (Mus musculus [10])?
A: Its Activity is “Active”.

Q: And the Activity (4T1 [11])?
A: Its Activity is “inactive”.

Q: What about the Activity (B16-F10) of the same compound?
A: The Activity was 5.9%.

Q: What about the Activity [12] of the same compound?
A: The Activity was “Non-toxic”.

Q: What about the Activity [13] of the same compound?
A: The Activity was “Not active; Ctsb-Mediated Lysosomal Degradation Mechanism Is Observed”.

Q: What about the bioavailability [14] of the same compound?
A: The bioavailability was 95.3%.

Q: What about the Activity (Mus musculus [15]) of the same compound?
A: Its Activity is 22%.

Q: And the Activity [16]?
A: Its Activity is “Active”.

Q: And the half-life [17]?
A: The half-life was 37.8 min.

Q: What about the Activity [18] of the same compound?
A: The Activity was “Non-toxic”.

Q: And the IC50 (SK-OV-3)?
A: Its IC50 is 12.8 µM.

Q: What about the Activity [19] of the same compound?
A: Its Activity is “Non-toxic”.
